System: R439H Tph2 knock-in mice
Assay: Tail suspension test after drug administration
Assay type: in vivo, mouse
Conditions: HO Tph2 knock-in mice; 30 min following administration; fluoxetine 5 mg/kg, TDZD 10 mg/kg (i.p.); vs vehicle (FIG. 7)
Experimental: Tail suspension test: Mice were tested in a tail suspension apparatus (Med-Associates, St. Albans, Vt.) as described (Crowley et al., 2004, Pharmacol. Biochem. Behav. 78:269-274). All mice were weighed and tail-marked 24 hrs before testing. Animals were brought into the testing room 4 hrs before injections. Pilot studies were used to determine the optimal automated threshold settings for immobility by comparing scores rated manually with scores tabulated simultaneously by the apparatus. Behavior was scored as time spent in immobility (sec) for the total period of the test.
Administration of anti-depressants or glycogen synthase kinase 3 inhibitors alleviates behavioral differences. Fluoxetine (Tocris Cookson Inc., Ellisville, Mo.) was dissolved in distilled water. Thiadiazolidinone (TDZD) (Calbiochem, Cambridge, Mass.) was injected (i.p.) following suspension in a minimal amount of Tween and diluted to volume with distilled water as previously described (Beaulieu et al., 2004, Proc. Natl Acad. Sci. USA 101:5099-5104). Corresponding vehicle solutions were injected in control animals. Mice were treated with vehicle or drug 30 min before testing. Behavioral testing was performed as described above.

Structure (SMILES) | immobility times in the tail suspension test
Cn1sc(=O)n(Cc2ccccc2)c1=O [TDZD, thiadiazolidinone] | comparable reduction of immobility times
CNCCC(Oc1ccc(C(F)(F)F)cc1)c1ccccc1 (centres unmarked) [fluoxetine] | comparable reduction of immobility times

Reference: patent US8124831B2, “Transgenic mice carrying functional single nucleotide polymorphisms in brain-specific tryptophan hydroxylase” (Duke University, priority 2006, dated 2012)
